Values of other authors in patent US20110008801A1, “METHODS FOR MEASURING CELL-CELL OR CELL-MATRIX ADHESIVE FORCES AND COMPOUNDS FOR DISRUPTING ADHESIVE FORCES IN BIOLOGICAL SYSTEMS” (Worcester Polytechnic Institute, priority 2006, published 2011).

Tested on: UPEC, type 1 and P fimbriated E. coli

**Q.** Which “adhesion of fimbriated E. coli” value does the source give for `O=C(CO)[C@@H](O)[C@H](O)[C@H](O)CO` [fructose] here?
**A.** inhibited the adhesion of bacteria with type 1 fimbriae only
